From ChEMBL document CHEMBL5465560, “Selectivity Literature for EUbOPEN Chemogenomic Library” (2024) come the findings set out here.

Data set [1] has as its target T1, Serine/threonine-protein kinase TBK1 (Homo sapiens) (UniProt Q9UHD2).
T1 sequence (whole entry): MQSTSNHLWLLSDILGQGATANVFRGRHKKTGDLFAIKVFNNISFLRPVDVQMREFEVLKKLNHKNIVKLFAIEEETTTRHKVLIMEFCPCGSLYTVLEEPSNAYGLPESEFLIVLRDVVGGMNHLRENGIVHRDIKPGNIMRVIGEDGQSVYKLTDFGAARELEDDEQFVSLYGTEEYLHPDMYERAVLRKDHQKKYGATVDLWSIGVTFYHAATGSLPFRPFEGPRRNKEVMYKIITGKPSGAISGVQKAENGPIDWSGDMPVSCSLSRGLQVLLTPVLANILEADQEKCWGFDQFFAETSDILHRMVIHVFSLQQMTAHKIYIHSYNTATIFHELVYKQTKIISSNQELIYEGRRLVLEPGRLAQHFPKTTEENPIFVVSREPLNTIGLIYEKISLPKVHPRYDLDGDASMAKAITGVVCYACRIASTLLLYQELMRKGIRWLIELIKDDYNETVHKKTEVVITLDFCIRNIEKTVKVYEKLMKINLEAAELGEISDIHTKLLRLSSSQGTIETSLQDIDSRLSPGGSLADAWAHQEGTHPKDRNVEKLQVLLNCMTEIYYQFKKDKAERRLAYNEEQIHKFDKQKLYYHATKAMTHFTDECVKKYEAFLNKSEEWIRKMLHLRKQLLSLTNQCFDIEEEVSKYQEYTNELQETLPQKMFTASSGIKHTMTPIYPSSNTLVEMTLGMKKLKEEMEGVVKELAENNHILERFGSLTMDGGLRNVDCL
Nature of the data set: Selectivity interaction (ActivX KiNativ screen (ex vivo kinase selectivity in human PBMCs)) EUB0001619a TBK1. The class given is cell-based. The settings on record: PBMC, at 1 µM.

The target of data set [2] is Tyrosine-protein kinase ABL1 (Homo sapiens, UniProt P00519). Nature of the data set: Selectivity interaction (KinomeScan (DiscoverX)) EUB0000607a ABL1. The following applies: at 10 µM.
Chain of Tyrosine-protein kinase ABL1 (P00519 whole entry): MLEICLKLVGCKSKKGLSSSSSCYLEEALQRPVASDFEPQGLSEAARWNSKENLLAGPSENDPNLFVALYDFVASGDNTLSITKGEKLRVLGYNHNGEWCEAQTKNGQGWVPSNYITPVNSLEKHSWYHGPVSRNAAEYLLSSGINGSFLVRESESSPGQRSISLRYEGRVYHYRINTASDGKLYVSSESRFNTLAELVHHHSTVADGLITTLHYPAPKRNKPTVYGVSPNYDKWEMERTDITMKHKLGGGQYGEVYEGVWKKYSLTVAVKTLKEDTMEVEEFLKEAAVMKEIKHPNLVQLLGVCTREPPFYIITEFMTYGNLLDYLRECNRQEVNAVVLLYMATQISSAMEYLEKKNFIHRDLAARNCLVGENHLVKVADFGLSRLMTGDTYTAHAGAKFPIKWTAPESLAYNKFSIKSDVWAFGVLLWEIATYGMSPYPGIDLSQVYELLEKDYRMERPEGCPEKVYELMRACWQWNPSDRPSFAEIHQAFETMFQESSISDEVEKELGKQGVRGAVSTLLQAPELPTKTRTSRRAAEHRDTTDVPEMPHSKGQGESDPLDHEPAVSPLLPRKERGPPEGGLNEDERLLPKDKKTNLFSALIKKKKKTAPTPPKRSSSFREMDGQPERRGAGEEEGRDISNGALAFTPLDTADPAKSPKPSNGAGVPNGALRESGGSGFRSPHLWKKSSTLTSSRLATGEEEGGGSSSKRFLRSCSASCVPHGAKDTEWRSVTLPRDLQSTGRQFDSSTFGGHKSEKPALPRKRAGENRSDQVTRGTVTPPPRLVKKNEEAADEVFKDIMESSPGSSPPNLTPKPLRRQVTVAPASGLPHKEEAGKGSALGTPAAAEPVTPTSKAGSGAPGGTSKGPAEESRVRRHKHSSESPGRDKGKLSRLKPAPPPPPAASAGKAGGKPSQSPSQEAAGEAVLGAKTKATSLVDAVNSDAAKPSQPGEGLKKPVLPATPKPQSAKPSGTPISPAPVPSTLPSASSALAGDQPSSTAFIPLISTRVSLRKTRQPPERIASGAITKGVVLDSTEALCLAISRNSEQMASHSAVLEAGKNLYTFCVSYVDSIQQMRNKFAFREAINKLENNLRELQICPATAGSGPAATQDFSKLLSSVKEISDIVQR
In data set [3] the test system is Tyrosine-protein kinase JAK2 (Homo sapiens), O60674 [V617F]. Nature of the data set: (§1) Selectivity interaction (SelectScreen profiling (Invitrogen)) EUB0000607a JAK2. The following applies: at 2 µM.
Chain of Tyrosine-protein kinase JAK2 (Homo sapiens), O60674 [V617F] (O60674 whole entry V617F): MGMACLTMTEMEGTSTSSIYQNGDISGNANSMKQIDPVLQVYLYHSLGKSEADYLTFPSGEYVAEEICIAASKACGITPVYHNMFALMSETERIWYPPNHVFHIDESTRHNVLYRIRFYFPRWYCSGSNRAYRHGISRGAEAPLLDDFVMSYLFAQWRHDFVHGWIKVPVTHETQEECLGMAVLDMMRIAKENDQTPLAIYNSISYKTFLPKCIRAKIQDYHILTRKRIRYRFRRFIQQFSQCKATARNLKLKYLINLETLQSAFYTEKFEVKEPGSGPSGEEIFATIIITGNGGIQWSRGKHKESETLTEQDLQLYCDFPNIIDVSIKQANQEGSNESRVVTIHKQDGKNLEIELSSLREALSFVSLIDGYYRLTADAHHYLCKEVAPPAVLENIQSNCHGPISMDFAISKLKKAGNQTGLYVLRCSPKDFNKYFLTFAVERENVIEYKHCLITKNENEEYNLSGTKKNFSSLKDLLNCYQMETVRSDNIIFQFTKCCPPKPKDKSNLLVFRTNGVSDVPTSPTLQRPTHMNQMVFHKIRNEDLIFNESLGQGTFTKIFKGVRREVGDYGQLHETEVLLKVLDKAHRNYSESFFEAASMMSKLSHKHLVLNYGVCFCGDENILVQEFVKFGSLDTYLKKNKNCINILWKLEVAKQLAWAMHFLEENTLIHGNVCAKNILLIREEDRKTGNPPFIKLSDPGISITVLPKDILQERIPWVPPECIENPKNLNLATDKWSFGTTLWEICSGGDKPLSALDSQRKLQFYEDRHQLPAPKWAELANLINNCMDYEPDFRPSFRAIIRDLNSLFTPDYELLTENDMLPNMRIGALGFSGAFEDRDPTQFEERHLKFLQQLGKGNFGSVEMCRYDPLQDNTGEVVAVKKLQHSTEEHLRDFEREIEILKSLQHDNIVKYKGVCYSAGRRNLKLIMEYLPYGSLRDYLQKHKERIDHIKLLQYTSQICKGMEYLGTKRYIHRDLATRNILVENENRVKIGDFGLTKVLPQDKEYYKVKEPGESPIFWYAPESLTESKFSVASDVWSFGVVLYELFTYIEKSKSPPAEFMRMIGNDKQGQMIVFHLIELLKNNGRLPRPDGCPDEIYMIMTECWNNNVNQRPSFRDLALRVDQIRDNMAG
Data set [4] addresses Tyrosine-protein kinase JAK2 (Homo sapiens, UniProt O60674). Described as §1. The following applies: at 2 µM.
Data set [5] has as its target Tyrosine-protein kinase ABL2 (Homo sapiens, UniProt P42684). Nature of the data set: Selectivity interaction (KinomeScan (DiscoverX)) EUB0000045b ABL2.
For data set [6], the target named is RAC-beta serine/threonine-protein kinase (Homo sapiens) (UniProt P31751). Nature of the data set: Selectivity interaction (Kinase panel (literature)) EUB0001199aCl AKT2. The following applies: at 1 µM.
Chain of RAC-beta serine/threonine-protein kinase (Homo sapiens) (P31751 whole entry): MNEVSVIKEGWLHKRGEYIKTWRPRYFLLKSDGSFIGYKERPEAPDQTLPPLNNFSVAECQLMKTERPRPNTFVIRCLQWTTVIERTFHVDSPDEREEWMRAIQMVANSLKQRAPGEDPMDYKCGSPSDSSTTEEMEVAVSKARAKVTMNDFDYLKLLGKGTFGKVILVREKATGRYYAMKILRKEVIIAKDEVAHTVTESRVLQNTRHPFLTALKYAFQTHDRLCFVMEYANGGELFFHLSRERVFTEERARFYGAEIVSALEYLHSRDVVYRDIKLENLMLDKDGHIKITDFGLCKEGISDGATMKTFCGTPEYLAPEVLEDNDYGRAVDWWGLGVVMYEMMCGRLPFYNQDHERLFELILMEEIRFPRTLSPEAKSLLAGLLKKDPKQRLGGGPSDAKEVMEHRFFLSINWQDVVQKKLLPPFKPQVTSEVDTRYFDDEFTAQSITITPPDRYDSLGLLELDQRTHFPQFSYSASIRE
Data set [7] deals with T2, Ephrin type-A receptor 1 (Homo sapiens) (UniProt P21709).
T2 sequence (whole entry): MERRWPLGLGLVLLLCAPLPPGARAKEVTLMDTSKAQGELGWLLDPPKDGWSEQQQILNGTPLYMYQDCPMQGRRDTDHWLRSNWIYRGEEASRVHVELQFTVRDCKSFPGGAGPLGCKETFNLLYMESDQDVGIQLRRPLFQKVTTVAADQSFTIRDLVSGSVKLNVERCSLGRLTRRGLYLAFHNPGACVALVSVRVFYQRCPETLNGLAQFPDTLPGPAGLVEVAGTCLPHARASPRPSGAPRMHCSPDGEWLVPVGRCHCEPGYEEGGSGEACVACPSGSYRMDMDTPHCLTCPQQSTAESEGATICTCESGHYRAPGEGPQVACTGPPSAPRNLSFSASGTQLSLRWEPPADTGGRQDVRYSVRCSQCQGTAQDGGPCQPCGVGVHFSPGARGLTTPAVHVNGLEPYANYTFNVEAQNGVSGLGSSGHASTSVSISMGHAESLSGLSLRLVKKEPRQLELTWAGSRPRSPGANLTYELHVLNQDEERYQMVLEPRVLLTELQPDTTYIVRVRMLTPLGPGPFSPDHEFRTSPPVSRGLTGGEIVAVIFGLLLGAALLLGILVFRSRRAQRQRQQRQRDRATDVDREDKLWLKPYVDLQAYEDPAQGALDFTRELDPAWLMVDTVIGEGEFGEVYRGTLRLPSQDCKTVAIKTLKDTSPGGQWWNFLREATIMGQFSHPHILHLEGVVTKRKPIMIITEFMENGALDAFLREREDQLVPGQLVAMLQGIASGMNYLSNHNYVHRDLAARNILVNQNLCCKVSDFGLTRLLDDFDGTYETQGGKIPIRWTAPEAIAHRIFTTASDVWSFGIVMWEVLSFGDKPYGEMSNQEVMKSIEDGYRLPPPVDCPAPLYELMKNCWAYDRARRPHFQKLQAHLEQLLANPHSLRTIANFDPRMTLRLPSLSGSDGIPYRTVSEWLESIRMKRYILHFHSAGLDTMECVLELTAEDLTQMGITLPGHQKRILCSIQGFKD
Description: Selectivity interaction (Ambit KINOMEscan and KiNATiv profiling in Jurkat cells) EUB0000090b EPHA1. The data set is classed as cell-based. The following applies: at 1 µM.

In data set [8] the target is T3, Phosphatidylinositol 5-phosphate 4-kinase type-2 gamma (Homo sapiens) (UniProt Q8TBX8).
T3 sequence (whole entry): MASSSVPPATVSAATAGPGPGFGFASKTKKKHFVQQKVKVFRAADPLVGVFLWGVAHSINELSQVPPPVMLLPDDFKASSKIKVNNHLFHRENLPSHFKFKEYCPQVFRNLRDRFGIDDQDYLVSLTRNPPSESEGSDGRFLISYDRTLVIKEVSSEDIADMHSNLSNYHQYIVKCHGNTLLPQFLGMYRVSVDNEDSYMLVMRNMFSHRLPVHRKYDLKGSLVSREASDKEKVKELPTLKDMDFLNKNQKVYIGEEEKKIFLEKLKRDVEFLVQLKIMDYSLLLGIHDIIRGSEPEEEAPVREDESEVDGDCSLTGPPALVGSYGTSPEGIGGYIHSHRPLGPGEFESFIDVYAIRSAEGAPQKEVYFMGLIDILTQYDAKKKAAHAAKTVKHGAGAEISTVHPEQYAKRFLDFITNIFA
Nature of the data set: Selectivity interaction (KinomeScan (DiscoverX)) EUB0001079a PIP4K2C. The settings on record: at 1 µM.

The target of another data set is KCNQ1 (Homo sapiens, UniProt P51787). Nature of the data set: Selectivity interaction (Panel of kinases, GPCRs, ion channels and transporters (enzymatic assay)) EUB0000266bCl KCNQ1.
Chain of KCNQ1 (P51787 whole entry): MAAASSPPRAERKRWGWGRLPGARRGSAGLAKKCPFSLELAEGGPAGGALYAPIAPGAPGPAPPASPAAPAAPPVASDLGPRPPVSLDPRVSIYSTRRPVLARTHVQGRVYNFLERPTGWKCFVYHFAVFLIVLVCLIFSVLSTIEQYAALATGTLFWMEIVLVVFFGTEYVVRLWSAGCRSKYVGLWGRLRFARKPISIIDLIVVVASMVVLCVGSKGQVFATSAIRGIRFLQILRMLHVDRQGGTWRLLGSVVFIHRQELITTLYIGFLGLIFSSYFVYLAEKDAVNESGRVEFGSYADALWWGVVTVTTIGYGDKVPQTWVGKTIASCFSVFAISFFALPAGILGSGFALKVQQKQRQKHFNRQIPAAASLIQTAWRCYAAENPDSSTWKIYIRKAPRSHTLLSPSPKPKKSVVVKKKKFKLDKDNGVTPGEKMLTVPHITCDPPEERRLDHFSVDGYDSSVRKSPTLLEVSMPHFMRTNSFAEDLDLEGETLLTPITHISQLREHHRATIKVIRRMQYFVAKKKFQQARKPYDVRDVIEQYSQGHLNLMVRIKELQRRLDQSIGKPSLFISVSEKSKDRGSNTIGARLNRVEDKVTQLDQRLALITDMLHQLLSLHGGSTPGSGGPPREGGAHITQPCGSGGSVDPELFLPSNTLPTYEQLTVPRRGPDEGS

Chain of Tyrosine-protein kinase ABL2 (P42684 whole entry): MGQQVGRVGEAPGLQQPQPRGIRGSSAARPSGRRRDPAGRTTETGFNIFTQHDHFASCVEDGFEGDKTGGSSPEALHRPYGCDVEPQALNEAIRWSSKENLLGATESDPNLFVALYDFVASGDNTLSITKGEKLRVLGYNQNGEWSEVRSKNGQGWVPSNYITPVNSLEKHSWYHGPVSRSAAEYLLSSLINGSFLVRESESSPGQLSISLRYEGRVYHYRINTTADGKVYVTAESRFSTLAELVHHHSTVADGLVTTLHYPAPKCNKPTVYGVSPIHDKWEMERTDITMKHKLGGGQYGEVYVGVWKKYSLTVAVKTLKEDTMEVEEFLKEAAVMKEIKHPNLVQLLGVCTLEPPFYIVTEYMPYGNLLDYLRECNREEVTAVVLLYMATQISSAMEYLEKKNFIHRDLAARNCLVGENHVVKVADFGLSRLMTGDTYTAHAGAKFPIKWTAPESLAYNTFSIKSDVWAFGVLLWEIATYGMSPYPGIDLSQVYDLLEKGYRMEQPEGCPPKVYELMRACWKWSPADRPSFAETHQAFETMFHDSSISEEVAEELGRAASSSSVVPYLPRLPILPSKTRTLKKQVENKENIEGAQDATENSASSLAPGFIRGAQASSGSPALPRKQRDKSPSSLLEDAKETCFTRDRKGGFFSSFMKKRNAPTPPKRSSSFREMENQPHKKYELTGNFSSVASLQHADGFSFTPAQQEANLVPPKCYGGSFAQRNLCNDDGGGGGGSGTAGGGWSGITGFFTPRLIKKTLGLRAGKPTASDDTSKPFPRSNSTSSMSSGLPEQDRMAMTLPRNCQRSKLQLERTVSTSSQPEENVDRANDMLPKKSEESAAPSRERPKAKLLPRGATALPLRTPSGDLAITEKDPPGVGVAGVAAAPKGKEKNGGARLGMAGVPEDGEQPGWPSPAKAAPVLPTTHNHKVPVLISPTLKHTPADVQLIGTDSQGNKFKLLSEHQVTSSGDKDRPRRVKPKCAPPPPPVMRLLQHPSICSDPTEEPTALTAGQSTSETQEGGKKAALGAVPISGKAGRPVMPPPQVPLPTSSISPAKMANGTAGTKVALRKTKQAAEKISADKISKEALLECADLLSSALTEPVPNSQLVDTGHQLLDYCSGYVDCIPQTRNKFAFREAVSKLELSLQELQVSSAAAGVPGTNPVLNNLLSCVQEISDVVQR
Chain of Tyrosine-protein kinase JAK2 (O60674 whole entry): as the sequence (O60674 whole entry V617F) above, with F617V counted along it

For the compound `N#Cc1cccc(-c2c[nH]c3ncnc(N4CCOCC4)c23)c1`, in data set [1], the % of inhibition came to 16%.
`CNC(=O)Nc1ccc(-c2nc(N3CC4CCC(C3)O4)c3cnn(C4CCC5(CC4)OCCO5)c3n2)cc1` came in with a % of control in data set [2] of 100%. For the same compound, the % of inhibition in data set [3] is 4%; in data set [4], -3%.
Consider `C=CC(=O)Nc1cc(-n2c(=O)ccc3cnc4ccc(-c5ccc(NS(C)(=O)=O)cc5)cc4c32)ccc1C`, for which the % of control in [5] (at 1 µM) and in [5] (at 10 µM) was 100% throughout.
For the compound `CN1Cc2nccc(-c3cn(C)nc3-c3ccc(F)cc3)c2C1=O`, in data set [6], the % of inhibition was 7%.
In the case of `CN(C)C/C=C/C(=O)Nc1ccc(C(=O)N2CCCC(Nc3ncc(Cl)c(-c4c[nH]c5ccccc45)n3)C2)cc1` (stereo not given), in data set [7], the % of control turned out to be 73%.
Take `Nc1cnc(N2CCc3cc(S(=O)(=O)Nc4c(F)cc(Cl)cc4F)cc(N4CCCC4=O)c32)nc1` [TP-020n]: in [8], the % of control was 100%.
Take `CCn1c(-c2nc3cc(C(=O)N4CCCC(N)C4)ccc3n2C)cc2ccccc21` (stereo not given): the XC50 at KCNQ1 was > 25.1 µM.
